As usually defined, the IC50 is the point on the concentration scale where inhibition reaches its midpoint.

The target of one assay is T1, glutathione S-transferase (GST)-fused full-length human Syk protein (Homo sapiens, UniProt P43405).
T1 construct: (GST)-fused full-length human Syk protein; GST (glutathione S-transferase); purchased Carna Biosciences
Briefly: Syk enzyme assay. The class given is biochemical. Conditions: Syk enzyme assay, Test Example 1; read-out: IC50 of Syk-inhibitory activity. The method, boiled down: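 GST-tagged full-length human Syk (baculovirus) preincubated with compound 15 min at room temperature (pH 7.0, 10 mM MgCl2), then reacted 40 min with 0.4 μM biotinylated peptide substrate and 27 μM ATP (final). Phosphorylation read by HTRF (615/665 nm) after EDTA stop; IC50 reported.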
As for `NC(=O)c1cc(F)c(N[C@@H]2CCCC[C@@H]2N)nc1Nc1cncc(-c2cccc(Cl)c2F)c1` (relative stereo) [Example 004-206, 6-(cis-2-aminocyclohexylamino)-2-((5-(3-chloro-2-fluorophenyl)pyridin-3-yl)amino)-5-fluoronicotinamide], the IC50 was under 10 nM. On the same count and under the same terms, the result for `Cc1nn(C)c2ccc(Nc3nc(N[C@H](C4CC4)[C@H](C)N)c(F)cc3C(N)=O)cc12` [Example 006-582, 6-(((1R,2S)-2-amino-1-cyclopropylpropyl)amino)-2-((1,3-dimethyl-1H-indazol-5-yl)amino)-5-fluoronicotinamide] reads under 10 nM; that for `COc1cc(Nc2nc(NC3CCN(C(=O)OCc4ccccc4)CC3N)c(F)cc2C(N)=O)ccn1` [Example 006-530, (3S,4R)-benzyl 3-amino-4-((5-carbamoyl-3-fluoro-6-((2-methoxypyridin-4-yl)amino)pyridin-2-yl)amino)piperidine-1-carboylate and (3R,4S)-benzyl 3-amino-4-((5-carbamoyl-3-fluoro-6-((2-methoxypyridin-4-yl)amino)pyridin-2-yl)amino)piperidine-1-carboxylate(=1:1)], under 10 nM; that for `CCC[C@@H](Nc1nc(Nc2cc(OC)nc(OC)c2)c(C(N)=O)cc1F)[C@@H](N)CC` [Example 006-413, 6-(((3S,4R)-3-aminoheptan-4-yl)amino)-2-((2,6-dimethoxypyridin-4-yl)amino)-5-fluoronicotinamide], under 10 nM. For `NC(=O)c1cc(F)c(N[C@H](Cc2ccccc2)c2ncc[nH]2)nc1Nc1ccc2ncccc2c1` [Example 012-029], the IC50 was in the range of 100 to 1000 nM. On the same count and under the same terms, the result for `NC(=O)c1cc(F)c(N[C@@H]2CCCC[C@@H]2N)nc1Nc1cc(F)c2c(ccn2CCN2CCOCC2)c1` (relative stereo) [Example 004-080, 6-(cis-2-aminocyclohexylamino)-5-fluoro-2-((7-fluoro-1-(2-morpholinoethyl)-1H-indol-5-yl)amino)nicotinamide] reads under 10 nM.

Consider `COc1cc(Nc2nc(NCc3ccc(N)cc3)c(F)cc2C(N)=O)cc(OC)c1` [Example 016-015], for which the IC50 lay in the range of 100 to 1000 nM. With `CC(C)(C)C(=O)Nc1cccc2cc(Nc3nc(N[C@@H]4CCCC[C@@H]4N)c(F)cc3C(N)=O)cnc12` (relative stereo) [Example 41-11, 6-(cis-2-aminocyclohexylamino)-5-fluoro-2-((8-pivalamidequinolin-3-yl)amino)nicotinamide], the IC50 is under 10 nM. On to `NC(=O)c1cc(F)c(NC2CCCCC2N)nc1Nc1cccc2c1cnn2Cc1ccccc1` (centres unmarked) [Example 002-029], for which the IC50 fell in the range of 10 to 50 nM. For `COc1cc(Nc2nc(NCC(N)=O)c(F)cc2C(N)=O)cc(OC)c1` [Example 016-005], the IC50 was in the range of 100 to 1000 nM. The same measure, in the same setting: the result for `NC(=O)c1cc(F)c(N[C@@H]2CCCC[C@@H]2N)nc1Nc1cncc(-c2cccc(OCCN3CCOCC3)c2)c1` (relative stereo) [Example 004-110, 6-(cis-2-aminocyclohexylamino)-5-fluoro-2-((5-(3-(2-morpholinoethoxy)phenyl)pyridin-3-yl)amino)nicotinamide] reads under 10 nM; that for `C[C@H](N)[C@@H](CC1CC1)Nc1nc(Nc2ccc3c(c2)c(F)nn3C)c(C(N)=O)cc1F` [Example 006-439, 6-(((2R,3S)-3-amino-1-cyclopropylbutan-2-yl)amino)-5-fluoro-2-((3-fluoro-1-methyl-1H-indazol-5-yl)amino)nicotinamide], 10 to 50 nM. Consider `CCn1nc(F)c2ccc(Nc3nc(N[C@H](CC4CC4)[C@H](C)N)c(F)cc3C(N)=O)cc21` [Example 006-441, 6-(((2R,3S)-3-amino-1-cyclopropylbutan-2-yl)amino)-2-((1-ethyl-3-fluoro-1H-indazol-6-yl)amino)-5-fluoronicotinamide], for which the IC50 was in the range of 10 to 50 nM.

The same assay, now with this note: read-out: Syk-inhibitory activity (IC50).
For `NC(=O)c1cc(F)c(NCc2cnn[nH]2)nc1Nc1ccc2ncccc2c1` [Example 12-27, 5-fluoro-2-(quinolin-6-ylamino)-6-(((1H-1,2,3-triazol-5-yl)methyl)amino)nicotinamide], the IC50 is at most 1000 nM.

(Values after patent publication US8895585B2, “Nicotinamide derivative or salt thereof” (FUJIFILM Corporation, priority 2010, dated 2014).)
